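Method: 48-hour compound exposure of cells in 96-well plates, five concentrations, linear interpolation of endpoints. GI50 is the concentration that inhibits growth by half. The concentration for full growth arrest is given as TGI.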
Key:
Experiment in all cases: NCI-60 cell line screen, 48 h; in the data active = GI50 below about 0.43 µM; inactive = the rest
[1] = tested on: 786-0 renal
[2] = tested on: A498 renal
[3] = tested on: A549 NSCLC
[4] = tested on: ACHN renal
[5] = tested on: BT-549 breast
[6] = tested on: CAKI-1 renal
[7] = tested on: CCRF-CEM leukemia
[8] = tested on: COLO 205 colon
[9] = tested on: DU-145 prostate
[10] = tested on: EKVX NSCLC
[11] = tested on: HCC-2998 colon
[12] = tested on: HCT-116 colon
[13] = tested on: HCT-15 colon
[14] = tested on: HL-60(TB) leukemia
[15] = tested on: HOP-62 NSCLC
[16] = tested on: HOP-92 NSCLC
[17] = tested on: HS 578T breast
[18] = tested on: HT29 colon
[19] = tested on: IGROV1 ovarian
[20] = tested on: K-562 leukemia
[21] = tested on: KM12 colon
[22] = tested on: LOX IMVI melanoma
[23] = tested on: M14 melanoma
[24] = tested on: MALME-3M melanoma
[25] = tested on: MCF7 breast
[26] = tested on: MDA-MB-231 breast
[27] = tested on: MDA-MB-435
[28] = tested on: MOLT-4 leukemia
[29] = tested on: NCI-H226 lung
[30] = tested on: NCI-H23 lung
[31] = tested on: NCI-H460 lung
[32] = tested on: NCI-H522 lung
[33] = tested on: NCI/ADR-RES ovarian
[34] = tested on: OVCAR-3 ovarian
[35] = tested on: OVCAR-4 ovarian
[36] = tested on: OVCAR-5 ovarian
[37] = tested on: OVCAR-8 ovarian
[38] = tested on: PC-3 prostate
[39] = tested on: RPMI-8226 leukemia
[40] = tested on: RXF 393 renal
[41] = tested on: SF-268 CNS
[42] = tested on: SF-295 CNS
[43] = tested on: SF-539 CNS
[44] = tested on: SK-MEL-2 melanoma
[45] = tested on: SK-MEL-28 melanoma
[46] = tested on: SK-MEL-5 melanoma
[47] = tested on: SK-OV-3 ovarian
[48] = tested on: SN12C renal
[49] = tested on: SNB-19 CNS
[50] = tested on: SNB-75 CNS
[51] = tested on: SR leukemia
[52] = tested on: SW-620 colon
[53] = tested on: T-47D breast
[54] = tested on: TK-10 renal
[55] = tested on: U251 CNS
[56] = tested on: UACC-257 melanoma
[57] = tested on: UACC-62 melanoma
[58] = tested on: UO-31 renal

Cc1nc2sc(C(=O)Nc3cccc(Br)c3C)c(N)c2cc1C(O)c1ccccc1 (stereo not given)
2550 nM: TGI [32]
> 70.5 µM: TGI [35]
22 µM: TGI [45]
inactive: GI50 [16] 1330 nM | GI50 [29] 546 nM | GI50 [45] 1510 nM | GI50 [54] 1490 nM | GI50 [56] 1460 nM
6.63 µM: TGI [6]
13.4 µM: TGI [50]
11.8 µM: TGI [12]
14.3 µM: TGI [4]
58 nM: TGI [2]
20.5 µM: TGI [24]
> 63 µM: TGI [54]
2930 nM: TGI [5]
22.4 µM: TGI [29]
14.6 µM: TGI [55]
10.1 µM: TGI [1]
12.7 µM: TGI [18]
6.93 µM: TGI [22]
13 µM: TGI [41]
16.5 µM: TGI [16]
5.16 µM: TGI [9]
67.7 µM: TGI [53]
26 µM: TGI [40]
18.5 µM: TGI [15]
13.2 µM: TGI [19]
73.3 nM: TGI [43]
> 60.2 µM: TGI [36]
15.7 µM: TGI [44]
6.04 µM: TGI [17] | TGI [48]
263 nM: TGI [46]
37.7 µM: TGI [38]
15 µM: TGI [30]
9.59 µM: TGI [57]
55.2 nM: TGI [27]
7.08 µM: TGI [39]
6.64 µM: TGI [42]
active: GI50 [1] 60.1 nM | GI50 [2] 18.1 nM | GI50 [3] 46.6 nM | GI50 [4] 74.3 nM | GI50 [5] 44 nM | GI50 [6] 60.1 nM | GI50 [7] 40.6 nM | GI50 [8] 46.4 nM | GI50 [9] 42.2 nM | GI50 [10] 283 nM | GI50 [11] 35.1 nM | GI50 [12] 37.1 nM | GI50 [13] 34.8 nM | GI50 [14] 30 nM | GI50 [15] 54.9 nM | GI50 [17] 34.5 nM | GI50 [18] 37.4 nM | GI50 [19] 48.7 nM | GI50 [20] 35.4 nM | GI50 [21] 37.3 nM | GI50 [22] 49.6 nM | GI50 [23] 30.6 nM | GI50 [24] 100 nM | GI50 [25] 37.3 nM | GI50 [26] 47.3 nM | GI50 [27] 19.8 nM | GI50 [28] 55.6 nM | GI50 [30] 61.6 nM | GI50 [31] 34.2 nM | GI50 [32] 28.6 nM | GI50 [33] 32 nM | GI50 [34] 32 nM | GI50 [35] 147 nM | GI50 [36] 61 nM | GI50 [37] 48.7 nM | GI50 [38] 46.2 nM | GI50 [39] 45.5 nM | GI50 [40] 29.4 nM | GI50 [41] 146 nM | GI50 [42] 33.5 nM | GI50 [43] 25.6 nM | GI50 [44] 249 nM | GI50 [46] 46.8 nM | GI50 [47] 60.9 nM | GI50 [48] 58.1 nM | GI50 [49] 59.8 nM | GI50 [50] 27.9 nM | GI50 [51] 37.4 nM | GI50 [52] 38.2 nM | GI50 [53] 55.4 nM | GI50 [55] 43.8 nM | GI50 [57] 56.6 nM | GI50 [58] 64.3 nM
12.8 µM: TGI [33]
5.66 µM: TGI [26]
43.8 µM: TGI [10]
87.6 nM: TGI [14]
19.3 µM: TGI [52]
156 nM: TGI [31]
4.76 µM: TGI [21]
1070 nM: TGI [8]
> 100 µM: TGI [3] | TGI [7] | TGI [20] | TGI [28] | TGI [37] | TGI [49] | TGI [51]
27 µM: TGI [56]
14.7 µM: TGI [23]
13.1 µM: TGI [25]
75.8 µM: TGI [47]
2120 nM: TGI [11]
1020 nM: TGI [34]
12.5 µM: TGI [58]
11.5 µM: TGI [13]

CCOc1cc(-c2nncn2C)ccc1Nc1ncc2cc(C)nc(NCC(C)(C)C)c2n1
active: GI50 [7] 321 nM | GI50 [12] 84.9 nM | GI50 [13] 193 nM | GI50 [51] 150 nM
> 100000 nM: TGI [2] | TGI [5] | TGI [8] | TGI [11] | TGI [14] | TGI [27] | TGI [31] | TGI [32] | TGI [34] | TGI [43] | TGI [46]
> 100 µM: TGI [1] | TGI [3] | TGI [4] | TGI [6] | TGI [7] | TGI [9] | TGI [10] | TGI [12] | TGI [13] | TGI [15] | TGI [16] | TGI [17] | TGI [18] | TGI [19] | TGI [20] | TGI [21] | TGI [22] | TGI [23] | TGI [24] | TGI [25] | TGI [26] | TGI [28] | TGI [29] | TGI [30] | TGI [33] | TGI [35] | TGI [36] | TGI [37] | TGI [38] | TGI [39] | TGI [40] | TGI [41] | TGI [42] | TGI [44] | TGI [45] | TGI [47] | TGI [48] | TGI [49] | TGI [50] | TGI [52] | TGI [53] | TGI [54] | TGI [55] | TGI [56] | TGI [57]
inactive: GI50 [1] > 100000 nM | GI50 [2] 514 nM | GI50 [3] 2340 nM | GI50 [5] > 80500 nM | GI50 [6] > 26600 nM | GI50 [8] 1400 nM | GI50 [9] > 30700 nM | GI50 [11] > 100000 nM | GI50 [14] > 100000 nM | GI50 [15] > 26200 nM | GI50 [16] > 26000 nM | GI50 [18] 1780 nM | GI50 [19] > 100000 nM | GI50 [21] > 100000 nM | GI50 [22] 1100 nM | GI50 [23] > 100000 nM | GI50 [24] > 100000 nM | GI50 [27] > 100000 nM | GI50 [29] > 23500 nM | GI50 [30] > 89700 nM | GI50 [31] 535 nM | GI50 [32] > 64400 nM | GI50 [33] 1060 nM | GI50 [34] > 27500 nM | GI50 [35] > 29300 nM | GI50 [36] > 100000 nM | GI50 [39] 2310 nM | GI50 [40] 2330 nM | GI50 [41] > 100000 nM | GI50 [42] > 100000 nM | GI50 [44] > 100000 nM | GI50 [45] > 100000 nM | GI50 [46] > 24000 nM | GI50 [47] > 100000 nM | GI50 [48] > 100000 nM | GI50 [49] > 100000 nM | GI50 [50] > 26000 nM | GI50 [52] 439 nM | GI50 [53] 2830 nM | GI50 [54] > 100000 nM | GI50 [55] > 100000 nM | GI50 [56] > 100000 nM | GI50 [57] > 100000 nM
> 75.8 µM: TGI [51]
